# From paper PMC11157481, “Mechanochemical Synthesis of New Praziquantel Cocrystals: Solid-State Characterization and Solubility” (Crystal Growth & Design, 2024)
# Where two headings read alike, the source gives them in different places.
# Assay: Equilibrium solubility by the shake-flask method with HPLC-UV analysis
# Assay type: physicochemical
# Conditions: for [PZQ] in SCF attained in 24 hours / [PZQ] in SGF attained in 24 hours / [PZQ] in SIF attained in 24 hours / [PZQ] in H2O attained in 24 hours / solubility thermodynamic at 24 h: shake-flask; for [PZQ] in SCF attained in 24 hours / [PZQ] in SGF attained in 24 hours / [PZQ] in SIF attained in 24 hours / [PZQ] in H2O attained in 24 hours: n = 3; for Increase in solubility in SIF compared to PZQ alone: 24 h, relative to pure PZQ; for solubility thermodynamic at 24 h: thermodynamic from solid
# Experimental: The stock solution of PZQ (2 mg/mL) was prepared by dissolving the pure compound in MeCN. Corresponding aliquots were diluted with the same solvent for the preparation of working PZQ solutions. Samples of 10 μL were injected into the chromatographic system. […] Ultrapure water was used as the reference dissolution medium. The solubility of the obtained PZQ cocrystals was determined by the shake-flask method. Briefly, excess PZQ and PZQ cocrystals (the corresponding amount of 6 mg of PZQ) were added to 2 mL vials containing 2 mL of the dissolution medium. The slurry samples were placed in an orbital shaker to achieve uniform mixing at 37 °C for 24 h. At different time intervals (10, 20, 30, 40, 50, 60, and 90 min), an aliquot of 200 μL of each sample was collected after centrifugation, filtered, and analyzed concerning the PZQ content by HPLC-UV analysis.
# The solubilities of each cocrystal and PZQ were tested in ultrapure water and the three dissolution media, simulating the biorelevant fluids present along the entire gastrointestinal tract, namely, SGF (simulated gastric fluid), SIF (simulated intestinal fluid), and SCF (simulated colonic fluid).
# [1] = simulated colonic fluid pH 7.8, 37 °C
# [2] = simulated gastric fluid pH 1.5, 37 °C
# [3] = simulated intestinal fluid pH 7.4, 37 °C
Increase in solubility in SIF compared to PZQ alone [fold],Compound,[PZQ] in SCF attained in 24 hours [1] [µg/mL],[PZQ] in SGF attained in 24 hours [2] [µg/mL],[PZQ] in SIF attained in 24 hours [3] [µg/mL],"[PZQ] in H2O attained in 24 hours (ultrapure water, 37 °C) [µg/mL]","solubility thermodynamic at 24 h (simulated colonic fluid (SCF), fassgf or other biorelevant, simulated colonic fluid pH 7.8, 37 °C, n = 3, read-out: [PZQ] in SCF attained in 24 hours) [µg/mL]","solubility thermodynamic at 24 h (simulated gastric fluid (SGF), simulated gastric fluid pH 1.5, 37 °C, n = 3, read-out: [PZQ] in SGF attained in 24 hours) [µg/mL]","solubility thermodynamic at 24 h (simulated intestinal fluid (SIF), fassgf or other biorelevant, simulated intestinal fluid pH 7.4, 37 °C, n = 3, read-out: [PZQ] in SIF attained in 24 hours) [µg/mL]","solubility thermodynamic at 24 h (ultrapure water, 37 °C, n = 3, read-out: [PZQ] in H2O attained in 24 hours) [µg/mL]"
–,"O=C(C1CCCCC1)N1CC(=O)N2CCc3ccccc3C2C1.O=C(O)c1ccc(O)cc1 (stereo not drawn) [Co-Crystal 5, PZQ – 4-HYDROXYBENZOIC ACID (4HBA)]",247.22,203.21,217.86,225.06,–,–,–,–
–,"O.O=C(C1CCCCC1)N1CC(=O)N2CCc3ccccc3C2C1.O=C(O)c1ccccc1O (stereo not drawn) [Co-Crystal 6, PZQ – SALICYLIC ACID (SAL) – H2O]",258.43,202.80,246.81,220.38,–,–,–,–
–,"O=C(C1CCCCC1)N1CC(=O)N2CCc3ccccc3C2C1.O=C(O)C(=O)O (stereo not drawn) [Co-Crystal 8, PZQ – OXALIC ACID (OXA)]",252.98,238.78,229.26,250.12,–,–,–,–
–,"O=C(C1CCCCC1)N1CC(=O)N2CCc3ccccc3C2C1.O=C(C1CCCCC1)N1CC(=O)N2CCc3ccccc3C2C1.O=C(O)c1cccc(O)c1 (stereo not drawn) [Co-Crystal 9, PZQ – 3-HYDROXYBENZOIC ACID (3HBA) (2:1)]",257.95,231.45,226.47,248.12,–,–,–,–
–,"O=C(C1CCCCC1)N1CC(=O)N2CCc3ccccc3C2C1 (stereo not drawn) [Co-Crystal 12, praziquantel]",–,–,–,–,220,200,193,211
–,PZQ – 4-AMINOSALICYLIC ACID (4ASA) – MeCN [Co-Crystal 3],294.31,323.31,264.29,278.89,–,–,–,–
1.87,PZQ – 5-HYDROXYISOPHTHALIC ACID (5HIP) – MeCN [Co-Crystal 1],122.86,85.70,361.00,95.51,–,–,–,–
1.26,PZQ – TRIMESIC ACID (TRI) – H2O [Co-Crystal 4],193.95,44.98,242.32,56.09,–,–,–,–

Compound,Increase in solubility in SIF compared to PZQ alone [fold],[PZQ] in SCF attained in 24 hours [1] [µg/mL],[PZQ] in SGF attained in 24 hours [2] [µg/mL],[PZQ] in SIF attained in 24 hours [3] [µg/mL],"[PZQ] in H2O attained in 24 hours (ultrapure water, 37 °C) [µg/mL]","solubility thermodynamic at 24 h (simulated colonic fluid (SCF), fassgf or other biorelevant, simulated colonic fluid pH 7.8, 37 °C, n = 3, read-out: [PZQ] in SCF attained in 24 hours) [µg/mL]","solubility thermodynamic at 24 h (simulated gastric fluid (SGF), simulated gastric fluid pH 1.5, 37 °C, n = 3, read-out: [PZQ] in SGF attained in 24 hours) [µg/mL]","solubility thermodynamic at 24 h (simulated intestinal fluid (SIF), fassgf or other biorelevant, simulated intestinal fluid pH 7.4, 37 °C, n = 3, read-out: [PZQ] in SIF attained in 24 hours) [µg/mL]","solubility thermodynamic at 24 h (ultrapure water, 37 °C, n = 3, read-out: [PZQ] in H2O attained in 24 hours) [µg/mL]"
"O=C(C1CCCCC1)N1CC(=O)N2CCc3ccccc3C2C1.O=C(O)c1cccc(O)c1 (stereo not drawn) [Co-Crystal 7, PZQ – 3-HYDROXYBENZOIC ACID (3HBA) (1:1)]",1.2,251.67,214.21,232.31,252.60,–,–,–,–
